Biological target: S. pneumoniae Topoisomerase IV ATPase (ParE) (Streptococcus pneumoniae serotype 4, UniProt Q59961)
Experiment: S. pneumoniae Topoisomerase IV ATPase inhibition
Format: biochemical
Conditions: values marked * are an average of two or more data points, read-out: % Inh (13 μM) of S. pneumoniae Topoisomerase IV ATPase
Description: S. pneumoniae Topoisomerase IV ATPase Inhibition Activity: Compounds may be tested for inhibition of S. pneumoniae ParE ATPase activity using an ammonium molybdate/malachite green-based phosphate detection assay (Lanzetta, P. A., L. J. Alvarez, P. S. Reinach, and O. A. Candia, 1979, 100: 95-97). Assays are performed in multiwell plates in 30 μl reactions containing: 20 mM Tris buffer pH 8.0, 50 mM ammonium acetate, 8.0 mM magnesium chloride, 0.5 mM ethylenediaminetetraacetic acid, 5% glycerol, 5 mM 1,4-Dithio-DL-threitol, 0.005% Brij-35, 5 μg/ml sheared salmon sperm DNA, 1.25 nM S. pneumoniae ParE, 160 μM ATP, and test compound in dimethylsulfoxide. Reactions are quenched with 30 μl of ammonium molybdate/malachite green detection reagent containing 1.2 mM malachite green hydrochloride, 8.5 mM ammonium molybdate tetrahydrate, and 1 M hydrochloric acid. Plates are read in an absorbance plate reader at 650 nm and percent inhibition values are calculated using dimethylsulfoxide (2%)-containing reactions as 0% inhibition and EDTA-containing ([…]) reactions as 100% inhibition controls. An IC50 measurement of compound potency for each compound can be determined from reactions performed in the presence of 10 different compound concentrations.
Many of the compounds of the invention were tested in an assay substantially similar to the assays described above for measuring the inhibition of E.coli GyrB ATPase, E. coli Topoisomerase IV ATPase, S. aureus GyrB ATPase, and S. pneumoniae Topoisomerase IV ATPase, and had IC50 values of <200 μM in one or more assays.

Chain of S. pneumoniae Topoisomerase IV ATPase (ParE) (Q59961 whole entry): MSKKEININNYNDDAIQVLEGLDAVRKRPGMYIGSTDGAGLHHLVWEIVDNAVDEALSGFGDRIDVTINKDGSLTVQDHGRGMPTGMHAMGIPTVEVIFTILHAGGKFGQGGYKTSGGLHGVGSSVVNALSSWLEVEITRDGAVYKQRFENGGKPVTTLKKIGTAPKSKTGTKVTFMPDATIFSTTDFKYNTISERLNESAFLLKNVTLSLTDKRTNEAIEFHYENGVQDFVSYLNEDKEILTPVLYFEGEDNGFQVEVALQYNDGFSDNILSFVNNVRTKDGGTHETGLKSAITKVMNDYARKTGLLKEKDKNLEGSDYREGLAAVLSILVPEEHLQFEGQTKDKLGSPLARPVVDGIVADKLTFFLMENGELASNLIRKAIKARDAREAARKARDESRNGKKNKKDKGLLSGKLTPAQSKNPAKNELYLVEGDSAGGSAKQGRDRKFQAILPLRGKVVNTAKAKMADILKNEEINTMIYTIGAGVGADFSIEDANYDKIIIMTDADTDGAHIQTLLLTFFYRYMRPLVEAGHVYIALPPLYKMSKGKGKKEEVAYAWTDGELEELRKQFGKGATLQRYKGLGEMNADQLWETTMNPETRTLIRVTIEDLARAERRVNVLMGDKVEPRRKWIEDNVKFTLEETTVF

CN(C)CCCNc1nc(Nc2ccc(F)c(Cl)c2)ncc1-c1cccnc1 [Example 23, N^2-(3-chloro-4-fluorophenyl)-N^4-[3-(dimethylamino)propyl]-5-pyridin-3-ylpyrimidin-2,4-diamine]
inhibition at 13 µM: 95.8%

CN(C)CCCNc1nc(Nc2ccc(F)c(Cl)c2)ncc1-c1ccc(/C=C/C(=O)O)cc1 [Example 24, (2E)-3-[4-(2-[(3-chloro-4-fluorophenyl)amino]-4-{[3-(dimethylamino)propyl]-amino}pyrimidin-5-yl)phenyl]prop-2-enoic acid]
inhibition at 13 µM: 98.1%

COc1ccc(-c2cnc(Nc3ccc(F)c(Cl)c3)nc2NCCCN(C)C)cc1 [Example 25, N^2-(3-chloro-4-fluorophenyl)-N^4-[3-(dimethylamino)propyl]-5-(4-methoxyphenyl)-pyrimidine-2,4-diamine]
inhibition at 13 µM: 90.5%

COc1cccc(-c2cnc(Nc3ccc(F)c(Cl)c3)nc2NCCCN(C)C)c1 [Example 26, N^2-(3-chloro-4-fluorophenyl)-N^4-[3-(dimethylamino)propyl]-5-(3-methoxyphenyl)-pyrimidine-2,4-diamine]
inhibition at 13 µM: 91.7%

CN(C)CCCNc1nc(Nc2ccc(F)c(Cl)c2)ncc1-c1ccc(CCC(=O)O)cc1 [Example 27, 3-[4-(2-[(3-chloro-4-fluorophenyl)amino]-4-{[3-(dimethylamino)propyl]-amino}pyrimidin-5-yl)phenyl]propanoic acid]
inhibition at 13 µM: 89.2%

COc1ccccc1-c1cnc(Nc2ccc(F)c(Cl)c2)nc1NCCCN(C)C [Example 28, N^2-(3-chloro-4-fluorophenyl)-N^4-[3-(dimethylamino)propyl]-5-(2-methoxyphenyl)-pyrimidin-2,4-diamine]
inhibition at 13 µM: 62.6%

CN(C)CCCNc1nc(Nc2ccc(F)c(Cl)c2)ncc1-c1cccc(/C=C/C(=O)O)c1 [Example 29, (2E)-3-[3-(2-[(3-chloro-4-fluorophenyl)amino]-4-{[3-(dimethylamino)propyl]-amino}pyrimidin-5-yl)phenyl]prop-2-enoic acid]
inhibition at 13 µM: 99.7%

CN(C)CCCNc1nc(Nc2ccc(F)c(Cl)c2)ncc1-c1cccc(C(=O)O)c1 [Example 31, 3-(2-[(3-chloro-4-fluorophenyl)amino]-4-{[3-(dimethylamino)propyl]-amino}pyrimidin-5-yl)benzoic acid]
inhibition at 13 µM: 86%

CN(C)CCCNc1nc(Nc2ccc(F)c(Cl)c2)ncc1-c1cncnc1 [Example 32, N^2-(3-chloro-4-fluorophenyl)-N^4-[3-(dimethylamino)propyl]-5,5′-bipyrimidine-2,4-diamine]
inhibition at 13 µM: 91.1%

CCCNc1nc(Nc2ccc(F)c(Cl)c2)ncc1-c1cncnc1 [Example 33, N^2-(3-chloro-4-fluorophenyl)-N^4-propyl-5-pyrimidin-5-ylpyrimidine-2,4-diamine]
inhibition at 13 µM: 81%

O=C1CCCN1CCCNc1nc(Nc2ccc(F)c(Cl)c2)ncc1-c1cncnc1 [Example 34, 1-[3-[[2-[(3-chloro-4-fluorophenyl)amino]-5-pyrimidin-5-ylpyrimidin-4-yl]amino]propyl] pyrrolidin-2-one]
inhibition at 13 µM: 84.3%

CC(=O)N1CCC(Nc2nc(Nc3ccc(F)c(Cl)c3)ncc2-c2cncnc2)CC1 [Example 35, 1-[4-[[2-[(3-chloro-4-fluorophenyl)amino]-5-pyrimidin-5-ylpyrimidin-4-yl]amino]piperidin-1-yl]ethanone]
inhibition at 13 µM: 58.3%

CC(=O)NCCNc1nc(Nc2ccc(F)c(Cl)c2)ncc1-c1cncnc1 [Example 37, N-[2-[[2-[(3-chloro-4-fluorophenyl)amino]-5-pyrimidin-5-ylpyrimidin-4-yl]amino]ethyl] acetamide]
inhibition at 13 µM: 76.3%

Fc1ccc(Nc2ncc(-c3cncnc3)c(NCc3ccccn3)n2)cc1Cl [Example 38, N^2-(3-chloro-4-fluorophenyl)-N^4-(pyridin-2-ylmethyl)-5-pyrimidin-5-ylpyrimidine-2,4-diamine]
inhibition at 13 µM: 62.3%

Fc1ccc(Nc2ncc(-c3cncnc3)c(NCc3cccnc3)n2)cc1Cl [Example 39, N^2-(3-chloro-4-fluorophenyl)-N^4-(pyridin-3-ylmethyl)-5-pyrimidin-5-ylpyrimidine-2,4-diamine]
inhibition at 13 µM: 63%

Fc1ccc(Nc2ncc(-c3cncnc3)c(NCc3ccncc3)n2)cc1Cl [Example 40, N^2-(3-chloro-4-fluorophenyl)-N^4-(pyridin-4-ylmethyl)-5-pyrimidin-5-ylpyrimidine-2,4-diamine]
inhibition at 13 µM: 72.4%

CC(C)(C)OC(=O)NCCNc1nc(Nc2ccc(F)c(Cl)c2)ncc1-c1cncnc1 [Example 41, tert-butyl N-[2-[[2-[(3-chloro-4-fluorophenyl)amino]-5-pyrimidin-5-ylpyrimidin-4-yl]amino]ethyl] carbamate]
inhibition at 13 µM: 72.7%

NC(=O)CCNc1nc(Nc2ccc(F)c(Cl)c2)ncc1-c1cncnc1 [Example 42, 3-[[2-[(3-chloro-4-fluorophenyl)amino]-5-pyrimidin-5-ylpyrimidin-4-yl]amino]propanamide]
inhibition at 13 µM: 77.5%

Fc1ccc(Nc2ncc(-c3cncnc3)c(NCCN3CCOCC3)n2)cc1Cl [Example 43, N^2-(3-chloro-4-fluorophenyl)-N^4-(2-morpholin-4-ylethyl)-5-pyrimidin-5-ylpyrimidine-2,4-diamine]
inhibition at 13 µM: 74.3%

Fc1ccc(Nc2ncc(-c3cncnc3)c(NCCc3ccccn3)n2)cc1Cl [Example 44, N^2-(3-chloro-4-fluorophenyl)-N^4-(2-pyridin-2-ylethyl)-5-pyrimidin-5-ylpyrimidine-2,4-diamine]
inhibition at 13 µM: 78.4%

Fc1ccc(Nc2ncc(-c3cncnc3)c(NCCc3cccnc3)n2)cc1Cl [Example 45, N^2-(3-chloro-4-fluorophenyl)-N^4-(2-pyridin-3-ylethyl)-5-pyrimidin-5-ylpyrimidine-2,4-diamine]
inhibition at 13 µM: 81.9%

O=S1(=O)CCN(CCNc2nc(Nc3ccc(F)c(Cl)c3)ncc2-c2cncnc2)CC1 [Example 47, N^2-(3-chloro-4-fluorophenyl)-N^4-[2-(1,1-dioxo-1,4-thiazinan-4-yl)ethyl]-5-pyrimidin-5-ylpyrimidine-2,4-diamine]
inhibition at 13 µM: 74.8%

O=S1(=O)CCN(CCCNc2nc(Nc3ccc(F)c(Cl)c3)ncc2-c2cncnc2)CC1 [Example 48, N^2-(3-chloro-4-fluorophenyl)-N^4-[3-(1,1-dioxo-1,4-thiazinan-4-yl)propyl]-5-pyrimidin-5-ylpyrimidine-2,4-diamine]
inhibition at 13 µM: 79.8%

Fc1ccc(Nc2ncc(-c3cncnc3)c(NCCCN3CCOCC3)n2)cc1Cl [Example 49, N^2-(3-chloro-4-fluorophenyl)-N^4-(3-morpholin-4-ylpropyl)-5-pyrimidin-5-ylpyrimidine-2,4-diamine]
inhibition at 13 µM: 85.6%

COCCNc1nc(Nc2ccc(F)c(Cl)c2)ncc1-c1cncnc1 [Example 50, N^2-(3-chloro-4-fluorophenyl)-N^4-(2-methoxyethyl)-5-pyrimidin-5-ylpyrimidine-2,4-diamine]
inhibition at 13 µM: 77.8%

Fc1ccc(Nc2ncc(-c3cncnc3)c(NCC3CCCO3)n2)cc1Cl (stereo not drawn) [Example 51, N-(3-chloro-4-fluorophenyl)-N′-(oxolan-2-ylmethyl)-5-pyrimidin-5-ylpyrimidine-2,4-diamine]
inhibition at 13 µM: 88.8%

CC(C)OCCNc1nc(Nc2ccc(F)c(Cl)c2)ncc1-c1cncnc1 [Example 52, N^2-(3-chloro-4-fluorophenyl)-N4-(2-propan-2-yloxyethyl)-5-pyrimidin-5-ylpyrimidine-2,4-diamine]
inhibition at 13 µM: 69.5%

Fc1ccc(Nc2ncc(-c3cncnc3)c(NCc3ccco3)n2)cc1Cl [Example 53, N^2-(3-chloro-4-fluorophenyl)-N^4-(furan-2-ylmethyl)-5-pyrimidin-5-ylpyrimidine-2,4-diamine]
inhibition at 13 µM: 70.5%

CCOC(=O)CNc1nc(Nc2ccc(F)c(Cl)c2)ncc1-c1cncnc1 [Example 54, ethyl 2-[[2-[(3-chloro-4-fluorophenyl)amino]-5-pyrimidin-5-ylpyrimidin-4-yl]amino]acetate]
inhibition at 13 µM: 77.5%

Fc1ccc(Nc2ncc(-c3cncnc3)c(NCCOc3ccccc3)n2)cc1Cl [Example 55, N^2-(3-chloro-4-fluorophenyl)-N^4-(2-phenoxyethyl)-5-pyrimidin-5-ylpyrimidine-2,4-diamine]
inhibition at 13 µM: 44.4%

COC(=O)[C@@H](C)Nc1nc(Nc2ccc(F)c(Cl)c2)ncc1-c1cncnc1 [Example 56, methyl (2R)-2-[[2-[(3-chloro-4-fluorophenyl)amino]-5-pyrimidin-5-ylpyrimidin-4-yl]amino]propanoate]
inhibition at 13 µM: 46.3%

Cc1cnc(CNc2nc(Nc3ccc(F)c(Cl)c3)ncc2-c2cncnc2)cn1 [Example 58, N^2-(3-chloro-4-fluorophenyl)-N^4-[(5-methylpyrazin-2-yl)methyl]-5-pyrimidin-5-ylpyrimidine-2,4-diamine]
inhibition at 13 µM: 58%

CC(C)Nc1nc(Nc2ccc(F)c(Cl)c2)ncc1-c1cncnc1 [Example 59, N^2-(3-chloro-4-fluorophenyl)-N^4-propan-2-yl-5-pyrimidin-5-ylpyrimidine-2,4-diamine]
inhibition at 13 µM: 51.8%

Source: patent publication US20100137313A1 (ASTRAZENECA AB, priority 2008, published 2010)
